Assay results taken from patent publication US20260258066A1, “NOVEL RUTHENIUM COMPLEXES, METHOD OF THEIR SYNTHESIS, INTERMEDIATE COMPOUNDS USED IN THIS METHOD, METHOD OF THEIR SYNTHESIS AND THE USE OF NOVEL RUTHENIUM COMPLEXES IN OLEFIN METATHESIS REACTIONS” (UNIWERSYTET WARSZAWSKI, priority 2022, published 2026).

Experiment: Test of complex solubility in nonpolar solvents (n-hexane)
Assay type: physicochemical
Conditions: 5 mg catalyst, n-hexane added in portions, room temperature, magnetic stirring
Method: In a round-bottom flask equipped with a stirring bar, the catalyst (Ru-a, Ru-b, Ru-c, Ru-d, Ru-h, Ru-15, Ru-16 and Hov-II) was placed, in the amount of 5 mg of each. n-hexane was added to each of the flasks in portions, at room temperature, and the mixture was stirred using a magnetic stirrer. The Ru-a dissolved in 6 mL, and the Ru-h complex in 4 mL of the solvent. In the case of the Ru-15 complex, almost complete solubility was observed after adding 20 mL of n-hexane.

- Volume of n-hexane in which 5 mg of the complex dissolved: > 20 mL
Compound: Cc1cc(C)c(N2CCN(c3c(C)cc(C)cc3C)[C]2=[Ru]([Cl])([Cl])=[CH]c2ccccc2OC(C)C)c(C)c1 [Hov-II]
